Assays:
Format in all cases: functional
SK-OV-3 = experiment: Growth inhibition of human SKOV3 cells assessed as cell growth at 10 uM after 48 hrs by sulforhodamine B assay relative to control; details: SK-OV-3, 48 h, read-out: Activity
Malme-3M = experiment: Growth inhibition of human MALME-3M cells assessed as cell growth at 10 uM after 48 hrs by sulforhodamine B assay relative to control; details: read-out: Activity
UACC-257 = experiment: Growth inhibition of human UACC257 cells assessed as cell growth at 10 uM after 48 hrs by sulforhodamine B assay relative to control; details: UACC-257, 48 h, read-out: Activity
OVCAR-3 [1] = experiment: Growth inhibition of human OVCAR3 cells after 48 hrs by sulforhodamine B assay; details: OVCAR-3, 48 h
RPMI-8226 = experiment: Growth inhibition of human RPMI8226 cells after 48 hrs by sulforhodamine B assay; details: RPMI-8226, 48 h; for CC50: read-out: LC50 (the source's name)
A498 = experiment: Growth inhibition of human A498 cells after 48 hrs by sulforhodamine B assay; details: A498, 48 h; for CC50: read-out: LC50 (the source's name)
OVCAR-5 = experiment: Growth inhibition of human OVCAR5 cells assessed as cell growth at 10 uM after 48 hrs by sulforhodamine B assay relative to control; details: OVCAR-5, 48 h, read-out: Activity
SW-620 [2] = experiment: Growth inhibition of human SW620 cells after 48 hrs by sulforhodamine B assay; details: SW-620, 48 h
SF-295 = experiment: Growth inhibition of human SF295 cells after 48 hrs by sulforhodamine B assay; details: SF-295, 48 h; for CC50: read-out: LC50 (the source's name)
U-251 = experiment: Growth inhibition of human U251 cells assessed as cell growth at 10 uM after 48 hrs by sulforhodamine B assay relative to control; details: U-251, 48 h, read-out: Activity
SN12C = experiment: Growth inhibition of human SN12C cells assessed as cell growth at 10 uM after 48 hrs by sulforhodamine B assay relative to control; details: read-out: Activity
MDA-MB-435 = experiment: Growth inhibition of human MDA-MB-435 cells assessed as cell growth at 10 uM after 48 hrs by sulforhodamine B assay relative to control; details: MDA-MB-435, 48 h, read-out: Activity
786-0 = experiment: Growth inhibition of human 786-0 cells assessed as cell growth at 10 uM after 48 hrs by sulforhodamine B assay relative to control; details: 786-0, 48 h, read-out: Activity
DU-145 = experiment: Growth inhibition of human DU145 cells after 48 hrs by sulforhodamine B assay; details: DU-145, 48 h; for CC50: read-out: LC50 (the source's name)
SW-620 [3] = experiment: Growth inhibition of human SW620 cells assessed as cell growth at 10 uM after 48 hrs by sulforhodamine B assay relative to control; details: SW-620, 48 h, read-out: Activity
OVCAR-3 [4] = experiment: Growth inhibition of human OVCAR3 cells assessed as cell growth at 10 uM after 48 hrs by sulforhodamine B assay relative to control; details: OVCAR-3, 48 h, read-out: Activity
UO-31 = experiment: Growth inhibition of human UO31 cells assessed as cell growth at 10 uM after 48 hrs by sulforhodamine B assay relative to control; details: UO-31, 48 h, read-out: Activity
SK-MEL-5 = experiment: Growth inhibition of human SK-MEL-5 cells after 48 hrs by sulforhodamine B assay; details: SK-MEL-5, 48 h
M14 = experiment: Growth inhibition of human M14 cells assessed as cell growth at 10 uM after 48 hrs by sulforhodamine B assay relative to control; details: M14, 48 h, read-out: Activity
SNB-75 [5] = experiment: Growth inhibition of human SNB75 cells assessed as cell growth at 10 uM after 48 hrs by sulforhodamine B assay relative to control; details: SNB-75, 48 h, read-out: Activity
SK-MEL-2 = experiment: Growth inhibition of human SK-MEL-2 cells after 48 hrs by sulforhodamine B assay; details: SK-MEL-2, 48 h
K562 = experiment: Growth inhibition of human K562 cells after 48 hrs by sulforhodamine B assay; details: K562, 48 h
MDA-MB-468 = experiment: Growth inhibition of human MDA-MB-468 cells after 48 hrs by sulforhodamine B assay; details: MDA-MB-468, 48 h
IGROV-1 [6] = experiment: Growth inhibition of human IGROV1 cells assessed as cell growth at 10 uM after 48 hrs by sulforhodamine B assay relative to control; details: IGROV-1, 48 h, read-out: Activity
OVCAR-4 = experiment: Growth inhibition of human OVCAR4 cells assessed as cell growth at 10 uM after 48 hrs by sulforhodamine B assay relative to control; details: OVCAR-4, 48 h, read-out: Activity
SNB-75 [7] = experiment: Growth inhibition of human SNB75 cells after 48 hrs by sulforhodamine B assay; details: SNB-75, 48 h
NCI-H460 = experiment: Growth inhibition of human NCI-H460 cells after 48 hrs by sulforhodamine B assay; details: NCI-H460, 48 h
TK-10 = experiment: Growth inhibition of human TK10 cells after 48 hrs by sulforhodamine B assay; details: TK-10, 48 h; for CC50: read-out: LC50 (the source's name)
SR = experiment: Growth inhibition of human SR cells assessed as cell growth at 10 uM after 48 hrs by sulforhodamine B assay relative to control; details: read-out: Activity
IGROV-1 [8] = experiment: Growth inhibition of human IGROV1 cells after 48 hrs by sulforhodamine B assay; details: IGROV-1, 48 h; for CC50: read-out: LC50 (the source's name)
BT-549 = experiment: Growth inhibition of human BT549 cells after 48 hrs by sulforhodamine B assay; details: BT-549, 48 h; for CC50: read-out: LC50 (the source's name)
A549 = experiment: Growth inhibition of human A549/ATCC cells after 48 hrs by sulforhodamine B assay; details: A549, 48 h
HT-29 = experiment: Growth inhibition of human HT-29 cells assessed as cell growth at 10 uM after 48 hrs by sulforhodamine B assay relative to control; details: HT-29, 48 h, read-out: Activity

CN(C)CCNc1nc2c(c(=N)n1-c1ccccc1)c(=S)n(-c1ccccc1)c(=S)n2-c1ccccc1
growth at 10 µM (SK-OV-3): 76.3% | growth at 10 µM (Malme-3M): -89.5% | growth at 10 µM (UACC-257): -74.6% | GI50 (OVCAR-3 [1]): 3000 nM | LC50 (OVCAR-3 [1]): 45.4 µM | TGI (OVCAR-3 [1]): 12.5 µM | GI50 (RPMI-8226): 400 nM | TGI (RPMI-8226): 2200 nM | CC50 (RPMI-8226): 7.3 µM | GI50 (A498): 2400 nM | TGI (A498): 6.8 µM | CC50 (A498): 28.1 µM | growth at 10 µM (OVCAR-5): 63.1% | GI50 (SW-620 [2]): 2100 nM | LC50 (SW-620 [2]): 18.8 µM | TGI (SW-620 [2]): 5.1 µM | GI50 (SF-295): 2900 nM | TGI (SF-295): 8.3 µM | CC50 (SF-295): 51.1 µM | growth at 10 µM (U-251): 2.1% | growth at 10 µM (SN12C): 52.3% | growth at 10 µM (MDA-MB-435): -64.5% | growth at 10 µM (786-0): -83.5% | GI50 (DU-145): 5.3 µM | TGI (DU-145): 18.8 µM | CC50 (DU-145): 48.8 µM | growth at 10 µM (SW-620 [3]): -59.1% | growth at 10 µM (OVCAR-3 [4]): -48.7% | growth at 10 µM (UO-31): 3.1% | GI50 (SK-MEL-5): 1600 nM | LC50 (SK-MEL-5): 6.1 µM | TGI (SK-MEL-5): 3100 nM | growth at 10 µM (M14): -84.4% | growth at 10 µM (SNB-75 [5]): 79% | GI50 (SK-MEL-2): 1700 nM | LC50 (SK-MEL-2): 6.7 µM | TGI (SK-MEL-2): 3.4 µM | GI50 (K562): 400 nM | LC50 (concentration killing 50% of cells) (K562): 6.8 µM | TGI (K562): 2200 nM | GI50 (MDA-MB-468): 1200 nM | LC50 (concentration killing 50% of cells) (MDA-MB-468): 6 µM | TGI (MDA-MB-468): 2700 nM | growth at 10 µM (IGROV-1 [6]): 36.3% | growth at 10 µM (OVCAR-4): 41.7% | GI50 (SNB-75 [7]): 2400 nM | LC50 (SNB-75 [7]): 31.9 µM | TGI (SNB-75 [7]): 7.5 µM | GI50 (NCI-H460): 3200 nM | LC50 (NCI-H460): 61.2 µM | TGI (NCI-H460): 11.8 µM | GI50 (TK-10): 3500 nM | TGI (TK-10): 14.3 µM | CC50 (TK-10): 48.8 µM | growth at 10 µM (SR): 34.7% | GI50 (IGROV-1 [8]): 8.1 µM | TGI (IGROV-1 [8]): 23 µM | CC50 (IGROV-1 [8]): 57.5 µM | GI50 (BT-549): 5.3 µM | TGI (BT-549): 21.3 µM | CC50 (BT-549): 62.1 µM | GI50 (A549): 4100 nM | LC50 (A549): 70.4 µM | TGI (A549): 18.6 µM | growth at 10 µM (HT-29): -35.7%

CCCCN(CCCC)CCCNc1nc2c(c(=N)n1-c1ccccc1)c(=S)n(-c1ccccc1)c(=S)n2-c1ccccc1
growth at 10 µM (SK-OV-3): -86.5% | growth at 10 µM (Malme-3M): -91.5% | growth at 10 µM (UACC-257): -73.1% | GI50 (OVCAR-3 [1]): 800 nM | LC50 (OVCAR-3 [1]): 4.6 µM | TGI (OVCAR-3 [1]): 2.1 µM | GI50 (RPMI-8226): 200 nM | TGI (RPMI-8226): 300 nM | CC50 (RPMI-8226): 0.7 µM | GI50 (A498): 1100 nM | TGI (A498): 2.4 µM | CC50 (A498): 5.2 µM | growth at 10 µM (OVCAR-5): -60.2% | GI50 (SW-620 [2]): 400 nM | LC50 (SW-620 [2]): 3.7 µM | TGI (SW-620 [2]): 1.4 µM | GI50 (SF-295): 1200 nM | TGI (SF-295): 2.7 µM | CC50 (SF-295): 5.8 µM | growth at 10 µM (U-251): -100% | growth at 10 µM (SN12C): -99.2% | growth at 10 µM (MDA-MB-435): -100% | growth at 10 µM (786-0): -100% | GI50 (DU-145): 1.1 µM | TGI (DU-145): 2.3 µM | CC50 (DU-145): 4.8 µM | growth at 10 µM (SW-620 [3]): -100% | growth at 10 µM (OVCAR-3 [4]): -100% | growth at 10 µM (UO-31): -80.9% | GI50 (SK-MEL-5): 900 nM | LC50 (SK-MEL-5): 4.6 µM | TGI (SK-MEL-5): 2100 nM | growth at 10 µM (M14): -86.3% | growth at 10 µM (SNB-75 [5]): -94.2% | GI50 (SK-MEL-2): 1700 nM | LC50 (SK-MEL-2): 6.9 µM | TGI (SK-MEL-2): 3.5 µM | GI50 (K562): 200 nM | GI50 (MDA-MB-468): 200 nM | LC50 (concentration killing 50% of cells) (MDA-MB-468): 0.6 µM | TGI (MDA-MB-468): 300 nM | growth at 10 µM (IGROV-1 [6]): -70.9% | growth at 10 µM (OVCAR-4): -82% | GI50 (SNB-75 [7]): 400 nM | LC50 (SNB-75 [7]): 4.1 µM | TGI (SNB-75 [7]): 1.6 µM | GI50 (NCI-H460): 400 nM | LC50 (NCI-H460): 4 µM | TGI (NCI-H460): 1.6 µM | GI50 (TK-10): 1300 nM | TGI (TK-10): 2.7 µM | CC50 (TK-10): 5.6 µM | growth at 10 µM (SR): -65.2% | GI50 (IGROV-1 [8]): 1.9 µM | TGI (IGROV-1 [8]): 3.8 µM | CC50 (IGROV-1 [8]): 7.5 µM | GI50 (BT-549): 1.5 µM | TGI (BT-549): 3.2 µM | CC50 (BT-549): 6.7 µM | GI50 (A549): 700 nM | LC50 (A549): 8.3 µM | TGI (A549): 2.4 µM | growth at 10 µM (HT-29): -63.3%

Reference: ChEMBL document CHEMBL2440027, “Further SAR studies on bicyclic basic merbarone analogues as potent antiproliferative agents” (Bioorg Med Chem, 2013)
